Patent publication US20140094484A1, “SUSTAINED DELIVERY FORMULATIONS OF RAPAMYCIN COMPOUNDS” (QLT Inc., priority 2012, published 2014)
Entries after “also recorded” stand apart in the source; their conditions may differ. Values belong to the molecule of their own block, whether it stands above or below them.

Key:
[1] = system: choroidal neovascularization (CNV); assay: Laser-induced CNV rat model, histological evaluation (CNV area, CD31 positive cell count); type: in vivo, Long Evans rats
Method: (§1) Thermal laser infrared light (diode laser 810 nm) at 200 mW for 0.075 seconds was delivered to the fundus of Long Evans rats using a slit lamp and a slit lamp adaptor. A total of 6 lesions with 75 μm diameter were placed in a circular pattern surrounding the optic disc on the posterior pole.
Intravitreal injection was performed immediately after laser photocoagulation. Briefly, three days prior to the injection, 0.3% Ciloxan ointment was applied to the eye once daily. At the time of injection, the eye pocket was irrigated and the conjunctiva swabbed with 1.0% Betadine solution. […] The injection began when the bevel of the needle faced down and reached the vitreous about 1-2 mm in depth with the visual aid of a dissecting microscope. After injection, topical 0.3% Ciloxan ointment was applied to the eye once daily for 2 days.
Eyes were enucleated and chorioretinal tissues that contained the CNV lesions prepared and fixed for about 18 hours in formic acid alcohol, and then replaced with 70% alcohol until the specimen was processed to wax by a standard method. Slides were stained with mouse anti rat CD31 (Chemicon, UK) by a standard immunohistochemistry protocol. This briefly consisted of removal of endogenous peroxidase enzymes with methanol and hydrogen peroxide, primary antibody as above, and the secondary donkey antibody anti mouse conjugated to biotin. Streptavidin ABC and Vector VIP substrate (Vector labs, Burlingame Calif.) were further added. Haematoxylin was used as a counterstain. Representative images before and after the center of each CNV lesion were taken using the 20× objective of an Olympus BX61 microscope fitted with a Spot RT colour camera (Diagnostic instruments, MI USA). Each image was applied to the standard image analysis macro in the software Image pro to identify the mean of lesion area for each CNV and the mean of CD31 positive cell counts (i.e. endothelial cells) within the CNV lesion area. All measurements were generated by two independent readers masked to the treatments. The data was analyzed in Excel and GraphPad Prism. The 80% correlation found between readers was deemed acceptable.

[2] = system: choroidal neovascularization (CNV); assay: Laser-induced CNV rat model, fluorescein angiography evaluation; type: in vivo, Long Evans rats; details: for effect on CNV development: intravitreal injection immediately after laser photocoagulation
Method: as §1
Intravitreal injection was performed immediately after laser photocoagulation. Briefly, three days prior to the injection, 0.3% Ciloxan ointment was applied to the eye once daily. At the time of injection, the eye pocket was irrigated and the conjunctiva swabbed with 1.0% Betadine solution. A 30-gauge needle connected to a […], Hamilton syringe that contained 5 μL carboxymethylcellulose (CMC)-based Rapamycin suspension (0.5, 5, 10 or 40 mg/mL) or CMC vehicle alone was inserted 1 mm posterior to the corneoscleral limbus. The injection began when the bevel of the needle faced down and reached the vitreous about 1-2 mm in depth with the visual aid of a dissecting microscope. After injection, topical 0.3% Ciloxan ointment was applied to the eye once daily for 2 days.
FA was performed on the 14th day after intravitreal injection of Rapamycin. Briefly, a 25-gauge butterfly catheter was placed in the tail vein on an anesthetized animal and a Heparin-Lock solution (0.50 mL of 10,000 IU/mL Heparin Sodium with 0.95 mL 0.9% Saline) was used to fill the catheter line to maintain intravenous access. A dose of 10 mg/kg of Diofluor 10% (Fluorescein Sodium 10%) was delivered through the tail vein, followed by a flush of sterile saline to ensure full delivery of Diofluor 10%. An infusion pump (Becton-Dickinson) connected to a 60 cc syringe was used to infuse the Diofluor 10% at a constant rate of 6 mL/min (8.4-13.2 pounds per square inches) to allow for consistency in the synchronization of the fluorescein bolus injection and the angiogram acquisition. Photographs were taken with a fluorescence fundus camera at 1-10, 30, 60, 90, 180, and 300 sec after Diofluor 10% administration. The leakiness of CNV was assessed by two independent readers masked to the treatment.

[3] = system: Human umbilical endothelial cells; assay: VEGF-activated endothelial cell proliferation, [3H]-thymidine incorporation; type: cell-based; details: [3H]-thymidine incorporation after 48 hours
Method: (§2) Targeted tissue concentrations were estimated from in vitro experiments assessing the inhibitory effects of rapamycin on endothelial cell proliferation and cytokine release from immune cells. Human umbilical endothelial cells were activated with Vascular Endothelial Growth Factor (VEGF) and incubated with various concentrations of rapamycin. Cell proliferation was evaluated by quantifying [3}H-thymidine incorporation after 48 hours. […] The IC50 for the release of TNFalpha from Lipopolysaccharide and IFNgamma treated THP-1 cells (monocytic cell line) was ˜1 nM and the IC50 for the release of IFNgamma from human peripheral blood T cells stimulated with phytohemagglutanin was ˜2 nM.

[4] = system: THP-1 cells (monocytic cell line); assay: TNFalpha release from Lipopolysaccharide and IFNgamma treated THP-1 cells; type: cell-based; details: Homo sapiens
Method: as §2

[5] = system: human peripheral blood T cells; assay: IFNgamma release from T cells stimulated with phytohemagglutanin; type: cell-based; details: T-cell
Method: as §2

mTOR = assay: Pharmacodynamic evaluation: Ser235/236 phosphorylation of S6 ribosomal protein in chorioretinal tissues (western blot); type: in vivo, Long Evans rats
Method: Upon euthanasia of the animal, the eyes were cut along the equator, separating the anterior and posterior segments. The vitreous was removed and the remaining back of eye (with intact retina, choroid and sclera) was placed in a labeled Nalgene Cryotube, immediately immersed in liquid nitrogen, and stored at −80° C. until ready to use. Upon lysis, tubes containing tissue were brought to room temperature to thaw. Tissues were lysed in 400 μL of lysis buffer (Cell Signaling CAT #: 9803) with protease inhibitor cocktail (Calbiochem CAT #: 539131) and beads in Matrix D Tubes (Q-biogene, CAT #: 6913-100) in the Fast Prep Instrument. Protein concentration of each sample was determined using the Pierce BCA Protein Determination Kit (Pierce, CAT #: 23225) and BSA as a standard. Samples were analyzed by SDS-PAGE, followed by western blotting. Primary antibodies included antibodies against phosphorylated S6 ribosomal protein, S6 ribosomal protein, and beta-actin antibody. Secondary antibodies included goat anti-Rabbit HRP linked antibodies, or Goat anti-Mouse HRP linked antibodies. Bound antibodies were detected using ECL or ECL plus Western Blotting Reagents. Densitometric evaluation was performed on blots scanned by Bio-Rad Multi-Analyst Software, and analyzed in MS Excel and GraphPad Prism.
Rapamycin inhibits mTOR activity, which then down-regulates Ser235/236 phosphorylation of the downstream target of mTOR, the S6 ribosomal protein. In order to evaluate the pharmacodynamic response of intravitreally administered rapamycin in the eye, the serine phosphorylation of S6 protein extracted from chorioretinal tissues was analyzed by western blot, and standardized by the total amount of S6 protein. […] The inhibitory effect of rapamycin on S6 phosphorylation occurred within the first 24 h and lasted for 7 days post-dosing, the longest follow-up timepoint.

SMILES: CC1(C)O[C@@H]2C[C@H]3[C@@H]4CCC5=CC(=O)C=C[C@]5(C)[C@@]4(F)[C@@H](O)C[C@]3(C)[C@]2(C(=O)CO)O1 [triamcinolone acetonide (TA), triamcinolone acetonide]
inhibition of CNV area ([1]; TA intravitreal 200 μg): approximately 50%
inhibition of endothelial cell count ([1]; TA intravitreal 200 μg): ~60%
incidence of leaky CNV at the 14-day follow-up ([2]; intravitreal dose of 200 μg, rat): 10%

IC50 [4]: ~1 nM
IC50 [5]: ~2 nM
SMILES: CO[C@H]1C[C@@H]2CC[C@@H](C)[C@@](O)(O2)C(=O)C(=O)N2CCCC[C@H]2C(=O)O[C@H]([C@H](C)C[C@@H]2CC[C@@H](O)[C@H](OC)C2)CC(=O)[C@H](C)/C=C(\C)[C@@H](O)[C@@H](OC)C(=O)[C@H](C)C[C@H](C)/C=C/C=C/C=C/1C [rapamycin, Rapamycin]
IC50 [3]: 69 nM
reduction in CNV area compared to the vehicle group ([1]; 0.5 μg intravitreal): 15%
reduction in CNV area compared to the vehicle group ([1]; 5 μg intravitreal): 55%
reduction in CNV area compared to the vehicle group ([1]; 50 μg intravitreal): 50%
overall reduction in the number of endothelial cells within the CNV area compared to the vehicle group ([1]; 50 μg, 5 μg and 0.5 μg intravitreal): 50-60%
CNV area and number of endothelial cells in the CNV lesions after treatment ([1]; intravitreal 50, 5, 0.5 μg): reduced after rapamycin treatment in a dose-dependent manner
level of phosphorylated Ser235/236 on S6 ribosomal protein, standardized by total S6 protein (mTOR; intravitreal, chorioretinal tissues, day 1, 3, 7 post-dosing, vs untreated or vehicle injected eyes): significantly reduced
time within which the inhibitory effect on S6 phosphorylation occurred (mTOR; intravitreal, rat): ≤ 24 h
time the inhibitory effect on S6 phosphorylation lasted post-dosing (mTOR; intravitreal, rat, longest follow-up timepoint): 7 days
activation of its target mTOR (mTOR; rat model of laser-induced CNV): suppressed the activation of its target mTOR at all tested time points
response in the rat CNV model ([2]; 5 μg intravitreally injected): nearly a complete response
effect on CNV development ([2]; rat): dose dependent inhibition of CNV development
effect on CNV development ([2]; rat, listed as Rapamycin): potent inhibitor of CNV; also recorded: inhibited the development of CNV
incidence of developing leaky CNV 2 weeks after laser photocoagulation ([2]; single intravitreal injection of 0.5 μg rapamycin in CMC, rat): 65%
incidence of developing leaky CNV 2 weeks after laser photocoagulation ([2]; single intravitreal injection of 5 μg rapamycin in CMC, rat): 5%
incidence of developing leaky CNV 2 weeks after laser photocoagulation ([2]; single intravitreal injection of 50 μg rapamycin in CMC, rat): 2%
